Laboratory results as given in article PMC4038554, “Human CD4^+ T Cell Responses to the Dog Major Allergen Can f 1 and Its Human Homologue Tear Lipocalin Resemble Each Other” (PLoS ONE, 2014).

Legend:
Assay in all cases: HLA class II peptide-binding assay (competitive ELISA)
DRB1*0301 = DRB1*0301 (Homo sapiens, UniProt P01903+P01911, A100K/A102G/A103R/A169T/F55Y/I96L/K41T/L162R/M171V/P40S/Q125H/Q178H/Q39Y/R42S/S66N/T106N/T262R/W38E/Y61H); details: immunopurified HLA, reference peptide IC50 423 nM, ratio ≤20 high affinity, 20–200 moderate affinity
DRB1*1301 = DRB1*1301 (Homo sapiens, UniProt P01903+P01911, A100E/A169T/K41T/L162R/M171V/P40S/Q125H/Q178H/Q39Y/Q99D/R42S/S66N/T262R/W38E/Y61H); details: immunopurified HLA, reference peptide IC50 208 nM, ratio ≤20 high affinity, 20–200 moderate affinity
DRB3 = tested on: DRB3; design: species or system human; details: DRB3; competitive ELISA, immunopurified HLA; reference peptide IC50 60 nM; ratio ≤20 high affinity, 20–200 moderate affinity
DRB1*0701 = DRB1*0701 (Homo sapiens, UniProt P01903+P01911, A100R/A102G/A103Q/D57E/D86V/E43K/F76Y/K127E/L162R/M171V/P40G/Q125H/Q99D/R33Q/R42Y/R54Q/S133A/S66F/T210M/V115G/Y107V/Y59L/Y89S); details: immunopurified HLA, reference peptide IC50 5 nM, ratio ≤20 high affinity, 20–200 moderate affinity
DRB4 = tested on: DRB4; design: species or system human; details: DRB4; competitive ELISA, immunopurified HLA; reference peptide IC50 8 nM; ratio ≤20 high affinity, 20–200 moderate affinity
DRB1*0401 = DRB1*0401 (Homo sapiens, UniProt P01903+P01911, A100K/A169T/F76Y/I96L/K127E/L162R/M171V/N62H/P40V/Q125Y/R42H/S133A/S149N/S66Y/V115G/V209L/W38E); details: immunopurified HLA, reference peptide IC50 8 nM, ratio ≤20 high affinity, 20–200 moderate affinity
DRB1*0101 = DRB1*0101 (Homo sapiens, UniProt P01903+P01911, A100R/D57E/F55L/F60I/F76Y/I96L/L162R/M171V/P40L/Q125E/R42F/V115G/Y59C); details: immunopurified HLA, reference peptide IC50 3 nM, ratio ≤20 high affinity, 20–200 moderate affinity
DRB5 = tested on: DRB5; design: species or system human; details: DRB5; competitive ELISA, immunopurified HLA; reference peptide IC50 7 nM; ratio ≤20 high affinity, 20–200 moderate affinity
DRB1*1101 = DRB1*1101 (Homo sapiens, UniProt P01903+P01911, A100R/A169T/A87E/I96F/K41T/L162R/M171V/P40S/Q125H/Q178H/Q39Y/Q99D/R42S/S66Y/T262R/V115G/W38E); details: immunopurified HLA, reference peptide IC50 50 nM, ratio ≤20 high affinity, 20–200 moderate affinity
DRB1*1501 = DRB1*1501 (Homo sapiens, UniProt P01903+P01911); details: immunopurified HLA, reference peptide IC50 775 nM, ratio ≤20 high affinity, 20–200 moderate affinity

Sequence | relative binding ratio (IC50 of the test peptide divided by IC50 of the reference peptide) (DRB1*0301) | relative binding ratio (IC50 of the test peptide divided by IC50 of the reference peptide) (DRB1*1301) | relative binding ratio (IC50 of the test peptide divided by IC50 of the reference peptide) (DRB3) | relative binding ratio (IC50 of the test peptide divided by IC50 of the reference peptide) (DRB1*0701) | relative binding ratio (IC50 of the test peptide divided by IC50 of the reference peptide) (DRB4) | relative binding ratio (IC50 of the test peptide divided by IC50 of the reference peptide) (DRB1*0401) | relative binding ratio (IC50 of the test peptide divided by IC50 of the reference peptide) (DRB1*0101) | relative binding ratio (IC50 of the test peptide divided by IC50 of the reference peptide) (DRB5) | relative binding ratio (IC50 of the test peptide divided by IC50 of the reference peptide) (DRB1*1101) | relative binding ratio (IC50 of the test peptide divided by IC50 of the reference peptide) (DRB1*1501)
ALEDFREFSRAKGLNQ [pC8, Can f 1 peptide p125–140] | > 236 | 245 | > 167 | 71 | > 1 179 | 189 | 155 | 101 | 2 | > 13
GKWYLKAMTADQEVPE [pC1, Can f 1 peptide p15–30] | 1 | 26 | > 167 | 75 | 29 | 1 | 32 | 72 | 70 | 8
GQRVVFIQPSPVRDHY [pC5, Can f 1 peptide p81–96] | 28 | 33 | > 167 | 61 | 1 054 | 101 | 1 | 3 | 179 | 7
HYILYCEGELHGRQIR [pC6, Can f 1 peptide p95–110] | 14 | 40 | > 167 | 644 | 62 | 91 | 48 | 50 | 78 | 7
KPDSVTPMILKAQKGGNL [pC2, Can f 1 peptide p31–48] | 1 | 26 | 1 | > 1 874 | > 1 179 | 72 | 141 | 144 | 11 | > 13

Other lines, results leading:

relative binding ratio (IC50 of the test peptide divided by IC50 of the reference peptide) (DRB1*0301) | relative binding ratio (IC50 of the test peptide divided by IC50 of the reference peptide) (DRB1*1301) | relative binding ratio (IC50 of the test peptide divided by IC50 of the reference peptide) (DRB3) | relative binding ratio (IC50 of the test peptide divided by IC50 of the reference peptide) (DRB1*0701) | relative binding ratio (IC50 of the test peptide divided by IC50 of the reference peptide) (DRB4) | relative binding ratio (IC50 of the test peptide divided by IC50 of the reference peptide) (DRB1*0401) | relative binding ratio (IC50 of the test peptide divided by IC50 of the reference peptide) (DRB1*0101) | relative binding ratio (IC50 of the test peptide divided by IC50 of the reference peptide) (DRB5) | relative binding ratio (IC50 of the test peptide divided by IC50 of the reference peptide) (DRB1*1101) | relative binding ratio (IC50 of the test peptide divided by IC50 of the reference peptide) (DRB1*1501) | Sequence
> 236 | > 481 | > 167 | 1 440 | > 1 179 | 85 | 3 | 22 | > 200 | > 13 | ALEDFEKAAGARGLST [pTL8, Tear lipocalin peptide p126–141]
> 236 | > 481 | > 167 | 230 | > 1 179 | 113 | 54 | > 1 443 | > 200 | > 13 | EILELAQSETCSPGGQ [pC9, Can f 1 peptide p141–156]
> 236 | > 481 | > 167 | > 1 874 | > 1 179 | > 1 260 | 569 | > 1 443 | > 200 | > 13 | ESILIPRQSETCSPGSD [pTL9, Tear lipocalin peptide p142–158]
7 | 5 | > 167 | 447 | > 1 179 | 120 | 209 | 1 | 0.3 | > 13 | GKHVAYIIRSHVKDHY [pTL5, Tear lipocalin peptide p82–97]
10 | 24 | 84 | 47 | 1 | 1 | 82 | 2 | 67 | 6 | GTWYLKAMTVDREFPE [pTL1, Tear lipocalin peptide p15–30]
> 236 | > 481 | > 167 | 2 222 | 121 | 3 | 31 | 16 | 3 | 5 | HYIFYCEGELHGKPVR [pTL6, Tear lipocalin peptide p96–111]
